One compound from US10791741B2, “Plant growth regulator” (JIANGSU HUIFENG BIO TECHNOLOGY CO., LTD., priority 2016, dated 2020) can be followed below.

The test system of this assay is melon. Kind of assay: Comprehensive test on growth regulation for melon by thidiazuron combined with amino-oligosaccharin. The assay is classed as in vivo. Particulars: 42 mg/kg. Here is the method:
1. Comprehensive Test on Growth Regulation for Melon by Thidiazuron Combined with Amino-Oligosaccharin
The thidiazuron and amino-oligosaccharin were diluted with acetone to give a series of concentrations, and the crops were sprayed in the flowering phase to determine the effect of each concentration on crop growth in the field, so as to make a comprehensive evaluation with respect to the carpopodium diameter, fruit setting rate, disease inhibition rate, quality, and yield of the crops. Carpopodium diameter increase rate=(Plant height in water control group−Plant height in treatment group)/Plant height in water control group*100% Fruit setting increase rate=(Stem diameter in treatment group−Stem diameter in water control group)/Stem diameter in water control group*100% Disease reduction rate=(Disease index in water control group−Disease index in treatment group)/Disease index in water control group*100% Single fruit weight increase rate=(weight in treatment group−quality in water control group)/weight in water control group*100% Central sugar increase rate=(Central sugar content in treatment group−Central sugar content in water control group)/Central sugar content in water control group*100%

The mark [1] stands for this setting: flowering phase, vs water control.
Where [2] appears, read: sprayed in flowering phase, 1 application.

For `O=C(Nc1ccccc1)Nc1cnns1` [Thidiazuron, thidiazuron], under setting [1], the “Anthracnose index reduction rate (disease reduction rate)” value is on record as 17.6%, the “Carpopodium diameter increase rate” value is given as 4.0%, the “Central sugar increase rate” value was found to be 7.4% and the “Fruit setting increase rate” value is recorded as 8.6%. Also, the “Single fruit weight increase rate” value under setting [1] is reported as 8.9%. In addition, under setting [2], the Anthracnose index turned out to be 17.76, the Carpopodium diameter was determined as 6.65 mm, the Central sugar content came to 9.36% and the Fruit setting rate was 27.0%. The Single fruit weight under setting [2] worked out at 1.03 kg.
